Values quoted from earlier work as cited in PMC7248880, “Preclinical Incorporation Dosimetry of [^18F]FACH—A Novel ^18F-Labeled MCT1/MCT4 Lactate Transporter Inhibitor for Imaging Cancer Metabolism with PET” (Molecules, 2020).

Assays:
[1] = piglet biokinetic data; cited from earlier work
[2] = system: MCT1; set-up: method as in PMID 31017677, PMID 31017677; details: cited from earlier work
[3] = system: MCT4; set-up: method as in PMID 31017677, PMID 31017677; details: cited from earlier work

SMILES | ED, Preclinical [1] [μSv/MBq] | IC50 [2] [nM] | IC50 [3] [nM]
O=S1(=O)c2ccc([18F])cc2-c2ccc(N3CCN4CCC3CC4)cc21 [[^18F]DBT10] | 13.7 |  | 
CCCN(CCCF)c1ccc(/C=C(\C#N)C(=O)O)c(OC)c1 [FACH] |  | 11 | 6.5
[18F]CC[C@H]1OC2(CCN(Cc3ccccc3)CC2)c2ccccc21 [(R)-(+)-[^18F]fluspidine] | 14.0 |  | 
[18F]c1ccc([C@@H]2C[C@H]3CCC[C@@H]2N3)cn1 [(−)-[^18F]flubatine] | 14.7 |  | 
FCC[C@@H]1OC2(CCN(Cc3ccccc3)CC2)c2ccccc21 [(S)-(−)-[^18F]fluspidine] | 12.9 |  | 
[18F]c1ccc(C2CC3CCCC2N3)cn1 (single isomer, unassigned; (+)) [(+)-[^18F]flubatine] | 14.3 |  | 
